As a reminder, the IC50 is the concentration at which inhibition is half-maximal. A high value points to a need for much substance.

Here are results for five molecules from US10988458B2, “Apoptosis signal-regulating kinase 1 inhibitors and methods of use thereof” (Enanta Pharmaceuticals, Inc., priority 2017, dated 2021).

For this assay, the target named is ASK1 kinase (Homo sapiens (Human), UniProt Q99683). The assay is described as follows: ASK1 kinase inhibition, HTRF KinEASE-STK TR-FRET assay. The note with it: 5 nM ASK1, 1 uM STK3 peptide substrate, 100 uM ATP, 3 hours. Type of assay: biochemical. The method, then:
The ability (IC50) of compounds to inhibit ASK1 kinase activity was determined by HTRF® KinEASE™ Assay System.
ASK1 was purchased from Thermofisher (Catalogue #PV4011), ATP was purchased from Sigma (Catalogue #A7699), HTRF® KinEASE™ Assay System was obtained from Cisbio (Bedford, Mass.). ½ Area plate was purchased from Perkin Elmer (Catalogue ##6005560). HTRF® KinEASE™-STK is a generic method for measuring serine/threonine kinase activities using a time-resolved fluorescence resonance energy transfer (TR-FRET) immunoassay. The IC50 value for each compound was determined in the presence of compound (various concentration from 0 to 10 μM) and a fixed amount of ATP and peptide substrates. The test compound, 1 uM STK3 peptide substrate, and 5 nM of ASK1 kinase are incubated with kinase reaction buffer containing 50 mM HEPES pH 7.5, 0.01% BRIJ-35, 10 mM MgCl2, and 1 mM EGTA for 30 minutes. 100 uM ATP is added to start kinase reaction and incubated for 3 hours. The STK3-antibody labeled with Eu^3+-Cryptate and 125 nM streptavidin-XL665 are mixed in a single addition with stop reagents provided by the Cisbio kit used to stop the kinase reaction. Fluorescence is detected using an Envision Multilabeled 2014 reader from PerkinElmer. The Fluorescence is measured at 615 nm (Cryptate) and 665 nm (XL665) and a ratio of 665 nm/615 nm is calculated for each well. The resulting TR-FRET is proportional to the phosphorylation level. Staurosporine was used as the positive control. IC50 was determined by XLfit 5.3.
By using above method, the inhibition of ASK1 was tested for the compound of formula (I). IC50 ranges are as follows: A<1 nM; 1 nM B<10 nM; 10 nM<C<100 nM; 100 nM<D<1 μM; […].
In general terms: In TR-FRET formats the signal depends on donor and acceptor labels being close together.

ASK1 kinase, sequence (Q99683 whole entry): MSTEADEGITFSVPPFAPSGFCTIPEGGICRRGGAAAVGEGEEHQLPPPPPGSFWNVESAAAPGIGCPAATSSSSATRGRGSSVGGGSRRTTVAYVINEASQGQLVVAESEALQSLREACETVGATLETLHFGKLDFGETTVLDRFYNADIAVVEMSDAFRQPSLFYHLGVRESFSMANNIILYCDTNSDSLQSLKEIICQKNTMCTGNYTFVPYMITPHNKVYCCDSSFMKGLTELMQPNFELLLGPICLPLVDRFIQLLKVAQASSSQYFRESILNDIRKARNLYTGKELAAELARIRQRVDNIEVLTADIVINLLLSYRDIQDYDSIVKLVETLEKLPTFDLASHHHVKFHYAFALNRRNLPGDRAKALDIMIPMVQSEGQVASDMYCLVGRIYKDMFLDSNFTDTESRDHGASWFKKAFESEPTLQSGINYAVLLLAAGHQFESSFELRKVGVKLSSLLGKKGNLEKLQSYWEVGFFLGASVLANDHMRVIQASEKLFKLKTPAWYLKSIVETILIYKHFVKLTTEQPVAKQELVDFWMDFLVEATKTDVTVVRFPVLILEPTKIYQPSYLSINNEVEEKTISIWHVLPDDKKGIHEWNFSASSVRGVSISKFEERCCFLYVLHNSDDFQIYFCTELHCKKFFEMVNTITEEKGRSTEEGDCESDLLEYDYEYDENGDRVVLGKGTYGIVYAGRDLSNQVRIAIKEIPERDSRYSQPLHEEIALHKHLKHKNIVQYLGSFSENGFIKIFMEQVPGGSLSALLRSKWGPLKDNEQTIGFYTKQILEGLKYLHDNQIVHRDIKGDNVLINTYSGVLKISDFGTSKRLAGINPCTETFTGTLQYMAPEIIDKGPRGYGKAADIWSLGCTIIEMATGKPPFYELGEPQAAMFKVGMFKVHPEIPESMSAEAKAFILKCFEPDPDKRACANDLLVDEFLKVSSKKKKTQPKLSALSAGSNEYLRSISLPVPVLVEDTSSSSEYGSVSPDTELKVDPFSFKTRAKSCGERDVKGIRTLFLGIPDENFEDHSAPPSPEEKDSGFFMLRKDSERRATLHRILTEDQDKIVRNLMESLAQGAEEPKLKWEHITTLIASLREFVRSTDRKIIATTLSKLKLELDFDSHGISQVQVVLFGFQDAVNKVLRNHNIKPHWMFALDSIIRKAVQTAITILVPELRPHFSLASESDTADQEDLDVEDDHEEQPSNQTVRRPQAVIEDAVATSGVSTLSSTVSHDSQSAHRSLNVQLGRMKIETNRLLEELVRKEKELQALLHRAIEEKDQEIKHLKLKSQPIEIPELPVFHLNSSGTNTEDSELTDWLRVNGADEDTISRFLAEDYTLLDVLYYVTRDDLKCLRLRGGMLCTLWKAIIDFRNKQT

In turn, `Cc1cc(F)c(C(=O)Nc2cccc(-n3cnnc3C(C)C)n2)cc1-n1cnc(C2CC2)c1` [Example 1c, 5-(4-cyclopropyl-1H-imidazol-1-yl)-2-fluoro-N-(6-(3-isopropyl-4H-1,2,4-triazol-4-yl)pyridin-2-yl)-4-methylbenzamide] displayed an IC50 of over 1 µM.

Regarding `Cc1cc(F)c(C(=O)Nc2cccc(-n3nnnc3C(C)C)n2)cc1-n1cnc(C(F)(F)F)c1` [Example 2b], the IC50 was 0.1 to 1 µM.

On to `CC(=O)OC[C@@H](C)n1nnnc1-c1cccc(NC(=O)c2cc(-n3cnc(C4CC4)c3)c(C)cc2F)n1` [Example 6a, (R)-2-(5-(6-(5-(4-cyclopropyl-1H-imidazol-1-yl)-2-fluoro-4-methyl-benzamido)pyridin-2-yl)-1H-tetrazol-1-yl)propyl acetate], for which the IC50 is 0.1 to 1 µM.

On to `Cc1cc(F)c(C(=O)Nc2cccc(-c3nnnn3C(C)C(=O)O)n2)cc1-n1cnc(C2CC2)c1` (centres unmarked) [Example 19a], for which the IC50 lay in the range of 0.1 to 1 µM. Then `Cc1cc(F)c(C(=O)Nc2ccnc(-c3nnn[nH]3)n2)cc1-n1cnc(C2CC2)c1` [Example 36a], with over 1 µM.
